Patent publication US20080312317A1 (Eisai R&D Management Co., Ltd., priority 2007, published 2008)

Legend:
Assay type in all cases: cell-based
[1] = system: OVCAR3 human ovarian cancer; test: Proliferation inhibitory effect, Cell Titer-Glo viability assay, OVCAR3; conditions: OVCAR-3, 72 h, 3 days culture with compound, luciferase viability readout, read-out: IC50, concentration for 50% inhibition of cell growth
Procedure: (§1) WiDr human colon cancer cells cultured in RPMI1640 medium containing 10% fetal bovine serum, penicillin (100 unit/ml) and streptomycin (100 μg/ml) (SIGMA product) were seeded into a 96-well plate by 2×10^3 cells/90 μl/well. After culturing the cells overnight in a CO2 incubator, 10 μl of the compound (P15) which is diluted in series in 3-folds was added in each well above, and cultured for another 3 days. Then, 50 μl of Cell Titer-Glo Luminescent Cell Viability Assay (Promega product) was added thereto, cells were shaken for 2 minutes and allowed to stand for 15 minutes to allow reaction. After completing the reaction, luciferase activity was measured using the luminometer. The thus obtained measurement value was given as an index for the number of living cells in each well.
(§2) The same experiment as above was carried out, except that WiDr human colon cancer cell was changed to U937 human leukemia cell, KP4 human pancreatic cancer cell, MIApaca2 human pancreatic cancer cell, MDA-MB231 human breast cancer cell, MDA-MB435 human breast cancer cell, DU145 human prostate cancer cell, PC9 human lung cancer cell and OVCAR3 human ovarian cancer, respectively. The concentration (IC50 values) of the compound (P15) required for 50% inhibition of each cancer cell was determined. […]

[2] = system: DU145 human prostate cancer cell; test: Proliferation inhibitory effect, Cell Titer-Glo viability assay, DU145; conditions: DU-145, 72 h, 3 days culture with compound, luciferase viability readout, read-out: IC50, concentration for 50% inhibition of cell growth
Procedure: as §1, §2

[3] = system: MIApaca2 human pancreatic cancer cell; test: Proliferation inhibitory effect, Cell Titer-Glo viability assay, MIApaca2; conditions: MIA PaCa-2, 72 h, 3 days culture with compound, luciferase viability readout, read-out: IC50, concentration for 50% inhibition of cell growth
Procedure: as §1, §2

[4] = system: KP4 human pancreatic cancer cell; test: Proliferation inhibitory effect, Cell Titer-Glo viability assay, KP4; conditions: 72 h, 3 days culture with compound, luciferase viability readout, read-out: IC50, concentration for 50% inhibition of cell growth
Procedure: as §1, §2

[5] = system: MDA-MB435 human breast cancer cell; test: Proliferation inhibitory effect, Cell Titer-Glo viability assay, MDA-MB435; conditions: MDA-MB-435, 72 h, 3 days culture with compound, luciferase viability readout, read-out: IC50, concentration for 50% inhibition of cell growth
Procedure: as §1, §2

[6] = system: PC9 human lung cancer cell; test: Proliferation inhibitory effect, Cell Titer-Glo viability assay, PC9; conditions: 72 h, 3 days culture with compound, luciferase viability readout, read-out: IC50, concentration for 50% inhibition of cell growth
Procedure: as §1, §2

U937 human leukemia cell = test: Proliferation inhibitory effect, Cell Titer-Glo viability assay, U937; conditions: U-937, 72 h, 3 days culture with compound, luciferase viability readout, read-out: IC50, concentration for 50% inhibition of cell growth
Procedure: as §1, §2

[7] = system: WiDr human colon cancer cell; test: Proliferation inhibitory effect, Cell Titer-Glo viability assay, WiDr; conditions: 72 h, 3 days culture with compound, luciferase viability readout, read-out: IC50, concentration for 50% inhibition of cell growth
Procedure: as §1
The same experiment as in Test Example 1 was carried out, except that the compound (P15) was changed to the compound (P16). The concentration (IC50 value) of the compound (P16) required for 50% inhibition of WiDr human colon cancer cell growth was determined.

[8] = system: MDA-MB231 human breast cancer cell; test: Proliferation inhibitory effect, Cell Titer-Glo viability assay, MDA-MB231; conditions: MDA-MB-231, 72 h, 3 days culture with compound, luciferase viability readout, read-out: IC50, concentration for 50% inhibition of cell growth
Procedure: as §1, §2

Row | SMILES | IC50 [1] | IC50 [2] | IC50 [3] | IC50 [4] | IC50 [5] | IC50 [6] | IC50 (U937 human leukemia cell) | IC50 [7] | IC50 [8]
1 | CC[C@H](O)[C@@H](C)[C@H]1O[C@@H]1C[C@@](C)(O)/C=C/C=C(\C)[C@H]1NC(=O)CCCCCC(OC(C)=O)/C=C/[C@@H]1C (stereo partly drawn) [Compound P15, (2S,3S,4E)-2-((1E,3E,5R)-5-hydroxy-6-{(2R,3R)-3-[(1R,2S)-2-hydroxy-1-methylbutyl]oxiran-2-yl}-1,5-dimethylhexa-1,3-dien-1-yl)-3-methyl-12-oxoazacyclododec-4-en-6-yl acetate] | 430 nM | 2300 nM | 500 nM | 1300 nM | 1700 nM | 1400 nM | 550 nM | 570 nM | 470 nM
2 | CC[C@H](O)[C@@H](C)[C@H]1O[C@@H]1C[C@H](C)/C=C/C=C(\C)[C@H]1NC(=O)CCCCCC(OC(C)=O)/C=C/[C@@H]1C (stereo partly drawn) [Compound P16] | 97 nM | 510 nM | 140 nM | 300 nM | 380 nM | 240 nM | 140 nM | 290 nM | 130 nM
